Data as given in US20220151896A1, “EFFICIENT SUNSCREEN COMPOSITIONS WITH DIETHYLAMINO HYDROXYBENZOYL HEXYL BENZOATE AND ORGANIC PARTICULATE UV FILTER” (BASF SE, priority 2019, published 2022).

What was measured:
[1] = general description of the commercial UV filter; cited from earlier work
[2] = Interfacial tension (polarity index) of emollients, Tensimat Densimat TD2000; format: physicochemical; details: interfacial tension oil/water
Excerpt: The term “polarity index” refers to non-polar or polar oils. Non-polar oils are mainly based on hydrocarbons and lack an electronegative element, such as oxygen. In contrast, polar oils contain heteroatoms that differ in electronegativity, which results in a dipole moment. However, such oils are still insoluble in water, i.e. hydrophob. The polarity index can be determined by measuring the interfacial tension between the respective oil and water.
Interfacial tension of the respective emollients as listed below was measured using a Tensimat Densimat TD2000.

Row | SMILES | absorption maximum [1] [nm] | polarity index [2] [mN/m]
1 | CCCCC(CC)COC(=O)c1ccc(Nc2nc(Nc3ccc(C(=O)NC(C)(C)C)cc3)nc(Nc3ccc(C(=O)OCC(CC)CCCC)cc3)n2)cc1 (centres unmarked) [diethylhexyl-butamidotriazone, 4,4′-[[6-[[4-[[(1,1-dimethylethyl)amino]carbonyl]phenyl]amino]-1,3,5-triazin-2,4-diyl]diimino]bis-benzoic acid-bis(2-ethylhexyl)ester] | 310 | 
2 | O1[SiH2]O[SiH2]O[SiH2]O[SiH2]O[SiH2]1 (centres unmarked) [cyclopentasiloxane] |  | 32
